Patent publication US20230158025A1 (UNIVERSITY OF UTAH RESEARCH FOUNDATION, priority 2020, published 2023)
pIC50: −log10 of the molar value. Where two headings read alike, the source gives them in different places.

Columns and labels:
[1] = molecular target: recombinant mouse GALK1 (Mus musculus, UniProt Q9R0N0); assay: mGALK1 biochemical activity assay (Kinase-Glo Plus, ATP depletion)
Procedure, shortened: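 Recombinant GALK1 (5 nM) with 100 μM galactose; GALK1 turnover read as ATP depletion by Kinase-Glo Plus luminescence. Reaction ran 1 h at room temperature before detection reagent was added.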

[2] = molecular target: recombinant human GALK1 (Homo sapiens, UniProt P51570); assay: hGALK1 biochemical activity assay (Kinase-Glo Plus, ATP depletion)
recombinant human GALK1, sequence (P51570 whole entry): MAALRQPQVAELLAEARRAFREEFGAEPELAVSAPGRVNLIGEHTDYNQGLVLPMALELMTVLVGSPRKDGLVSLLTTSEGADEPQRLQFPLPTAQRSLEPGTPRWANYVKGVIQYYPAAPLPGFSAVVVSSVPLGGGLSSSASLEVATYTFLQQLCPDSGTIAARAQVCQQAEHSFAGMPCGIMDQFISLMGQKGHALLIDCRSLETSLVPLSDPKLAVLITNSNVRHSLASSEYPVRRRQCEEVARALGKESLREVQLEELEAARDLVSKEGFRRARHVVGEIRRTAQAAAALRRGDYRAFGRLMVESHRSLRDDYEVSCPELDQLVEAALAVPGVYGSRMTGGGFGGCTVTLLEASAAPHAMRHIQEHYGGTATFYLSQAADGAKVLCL
Procedure, shortened: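 Turnover is measured as ATP depletion by Kinase-Glo Plus luminescence after a 1 h room-temperature reaction. Compounds span 11 concentrations, 57.4 μM–0.97 nM, in final 20 mM HEPES pH 8.0 with 5 mM MgCl2. The substrate solution held 35 μM ATP; the added solution held 5 nM human or mouse GALK1 and 100 μM galactose.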

[3] = PAMPA permeability; details: PAMPA; for Papp: Perm. (1 × 10^−6 cm/sec)
[4] = aqueous kinetic solubility; details: aqueous kinetic solubility
[5] = rat microsomal stability (RLM); details: microsomal stability half-life
[6] = Tables 2-15, 35 μM ATP, 100 μM galactose, 1 h, bracketed figure after some values is undefined and not reported, read-out: mGALK IC50
[7] = recombinant mouse GALK1, Kinase-Glo Plus ATP depletion, read-out: mGALK
[8] = Tables 2-15, 35 μM ATP, 100 μM galactose, 1 h, bracketed figure after some values (e.g. −1.2) is undefined and not reported, read-out: hGALK IC50
[9] = recombinant human GALK1, Kinase-Glo Plus ATP depletion, read-out: hGALK

recombinant mouse GALK1, sequence (Q9R0N0 whole entry): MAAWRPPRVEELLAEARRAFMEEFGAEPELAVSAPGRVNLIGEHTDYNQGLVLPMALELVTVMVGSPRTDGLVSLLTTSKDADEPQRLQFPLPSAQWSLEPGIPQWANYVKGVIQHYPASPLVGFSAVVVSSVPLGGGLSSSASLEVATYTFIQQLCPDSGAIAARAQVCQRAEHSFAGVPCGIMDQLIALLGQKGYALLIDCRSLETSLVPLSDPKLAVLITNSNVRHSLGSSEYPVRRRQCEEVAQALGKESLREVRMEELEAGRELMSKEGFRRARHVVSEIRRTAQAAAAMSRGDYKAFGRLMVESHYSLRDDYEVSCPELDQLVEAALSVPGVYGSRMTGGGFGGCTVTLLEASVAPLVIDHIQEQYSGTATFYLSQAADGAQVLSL

SMILES | pIC50 [1, 6] | pIC50 [1, 7] | pIC50 [2, 8] | pIC50 [2, 9] | Perm. (1 × 10^−6 cm/sec) [3] | Sol. [4] | Metab. Stabil. (m) [5] | Papp [3]
CC1=C(C(=O)Nc2nnc(C(F)(F)F)s2)C(c2ccccc2Cl)N=C(Nc2nc3ccccc3o2)N1 (stereo not shown) [Compound 167, 2-(benzo[d]oxazol-2-ylamino)-4-(2-chlorophenyl)-6-methyl-N-(5-(trifluoromethyl)-1,3,4-thiadiazol-2-yl)-1,4-dihydropyrimidine-5-carboxamide] | 4.66 | 4.66 | 4.91 | 4.91 | 12.6 1 × 10^−6 cm/sec | <1 µg/mL | >30 m | 
CC1=C(C(=O)Nc2cccc(-c3nnn[nH]3)c2)C(c2ccccc2Cl)N=C(Nc2nc3ccccc3o2)N1 (stereo not shown) [Compound 175, N-(3-(1H-tetrahydro-5-yl)phenyl)-2-(benzo[d]oxazol-2-ylamino)-4-(2-chlorophenyl)-6-methyl-1,4-dihydropyrimidine-5-carboxamide] | 4.46 | 4.46 | 4.71 | 4.71 | 5.0 1 × 10^−6 cm/sec | 47.5 µg/mL | >30 m | 
COC(=O)Cc1cccc(NC(=O)C2=C(C)NC(Nc3nc4ccccc4o3)=NC2c2ccccc2Cl)c1 (stereo not shown) [Compound 176, methyl 2-(3-(2-(benzo[d]oxazol-2-ylamino)-4-(2-chlorophenyl)-6-methyl-1,4-dihydropyrimidine-5-carboxamido)phenyl)acetate] | 4.86 | 4.86 | 4.96 | 4.96 | <17.4 1 × 10^−6 cm/sec | <1 µg/mL | 10.34 m | 
CC1=C(C(=O)Nc2cccc(-c3cn[nH]c3)c2)C(c2ccccc2Cl)N=C(Nc2nc3ccccc3o2)N1 (stereo not shown) [Compound 178, N-(3-(1H-pyrazol-4-yl)phenyl)-2-(benzo[d]oxazol-2-ylamino)-4-(2-chlorophenyl)-6-methyl-1,4-dihydropyrimidine-5-carboxamide] | 4.41 | 4.41 | 4.76 | 4.76 | <25.4 1 × 10^−6 cm/sec | <1 µg/mL | >30 m | 
COC(=O)c1csc(NC(=O)C2=C(C)NC(Nc3nc4ccccc4o3)=NC2c2ccccc2Cl)n1 (stereo not shown) [Compound 186, methyl 2-(2-(benzo[d]oxazol-2-ylamino)-4-(2-chlorophenyl)-6-methyl-1,4-dihydropyrimidine-5-carboxamido)thiazole-4-carboxylate] | 4.86 | 4.86 | 4.91 | 4.91 | 65.6 1 × 10^−6 cm/sec | <1 µg/mL | >30 m | 
CC1=C(C(=O)Nc2nnc(-c3ccncc3)s2)C(c2ccccc2Cl)N=C(Nc2nc3ccccc3o2)N1 (stereo not shown) [Compound 187, 2-(benzo[d]oxazol-2-ylamino)-4-(2-chlorophenyl)-6-methyl-N-(5-(pyridin-4-yl)-1,3,4-thiadiazol-2-yl)-1,4-dihydropyrimidine-5-carboxamide] | 4.71 | 4.71 | 4.96 | 4.96 | 6.2 1 × 10^−6 cm/sec | <1 µg/mL | >30 m | 
CC1=C(C(=O)Nc2ccc(C#N)cc2)C(c2ccccc2Cl)N=C(Nc2nc3ccccc3o2)N1 (stereo not shown) [Compound 189, 2-(benzo[d]oxazol-2-ylamino)-4-(2-chlorophenyl)-N-(4-cyanophenyl)-6-methyl-1,4-dihydropyrimidine-5-carboxamide] | 4.86 | 4.86 | 4.96 | 4.96 | <18.7 1 × 10^−6 cm/sec | <1 µg/mL | 25.33 m | 
CC1=C(C(=O)Nc2ccc(N3CCNCC3)cc2)C(c2ccccc2Cl)N=C(Nc2nc3ccccc3o2)N1 (stereo not shown) [Compound 190, 2-(benzo[d]oxazol-2-ylamino)-4-(2-chlorophenyl)-6-methyl-N-(4-(piperazin-1-yl)phenyl)-1,4-dihydropyrimidine-5-carboxamide] | 4.31 | 4.31 | 4.16 | 4.16 |  | 2.416 µg/mL | 8.634 m | 894 ×10⁻⁶ cm/s
CC1=C(C(=O)Nc2ncc(CO)s2)C(c2ccccc2Cl)N=C(Nc2nc3ccccc3o2)N1 (stereo not shown) [Compound 193, 2-(benzo[d]oxazol-2-ylamino)-4-(2-chlorophenyl)-N-(5-(hydroxymethyl)thiazol-2-yl)-6-methyl-1,4-dihydropyrimidine-5-carboxamide] | 4.71 | 4.71 | 4.91 | 4.91 | 161.4 1 × 10^−6 cm/sec | <1 µg/mL | >30 m | 

Compounds with a higher pIC50 [1, 6], results first:

pIC50 [1, 6] | pIC50 [1, 7] | pIC50 [2, 8] | pIC50 [2, 9] | Perm. (1 × 10^−6 cm/sec) [3] | Sol. [4] | Metab. Stabil. (m) [5] | Papp [3] | SMILES
4.96 |  | 5.31 | 5.31 | <2.7 1 × 10^−6 cm/sec | <1 µg/mL | 3.158 m |  | CCOC(=O)c1nnc(NC(=O)C2=C(C)NC(Nc3nc4ccccc4o3)=NC2c2ccccc2Cl)s1 (stereo not shown) [Compound 168, ethyl 5-(2-(benzo[d]oxazol-2-ylamino)-4-(2-chlorophenyl)-6-methyl-1,4-dihydropyrimidine-5-carboxamido)-1,3,4-thiadiazole-2-carboxylate]
4.91 | 4.91 | 5.26 | 5.26 | 195.0 1 × 10^−6 cm/sec | <1 µg/mL | 7.464 m |  | COC(=O)Cc1ccc(NC(=O)C2=C(C)NC(Nc3nc4ccccc4o3)=NC2c2ccccc2Cl)cc1 (stereo not shown) [Compound 170, methyl 2-(4-(2-(benzo[d]oxazol-2-ylamino)-4-(2-chlorophenyl)-6-methyl-1,4-dihydropyrimidine-5-carboxamido)phenyl)acetate]
5.16 | 5.16 | 4.96 | 4.96 | 32.7 1 × 10^−6 cm/sec | 37.5 µg/mL | >30 m |  | CC1=C(C(=O)Nc2cccc(CN)c2)C(c2ccccc2Cl)N=C(Nc2nc3ccccc3o2)N1 (stereo not shown) [Compound 171, N-(3-(aminomethyl)phenyl)-2-(benzo[d]oxazol-2-ylamino)-4-(2-chlorophenyl)-6-methyl-1,4-dihydropyrimidine-5-carboxamide]
5.01 | 5.01 | 5.51 | 5.51 | <3.7 1 × 10^−6 cm/sec | <1 µg/mL | >30 m |  | CC1=C(C(=O)Nc2nnc(-c3cccnc3)s2)C(c2ccccc2Cl)N=C(Nc2nc3ccccc3o2)N1 (stereo not shown) [Compound 180, 2-(benzo[d]oxazol-2-ylamino)-4-(2-chlorophenyl)-6-methyl-N-(5-(pyridin-3-yl)-1,3,4-thiadiazol-2-yl)-1,4-dihydropyrimidine-5-carboxamide]
5.16 | 5.16 | 5.36 | 5.36 | <6.3 1 × 10^−6 cm/sec | <1 µg/mL | >30 m |  | CC1=C(C(=O)Nc2ccc(C(N)=O)cc2)C(c2ccccc2Cl)N=C(Nc2nc3ccccc3o2)N1 (stereo not shown) [Compound 181, 2-(benzo[d]oxazol-2-ylamino)-N-(4-carbamoylphenyl)-4-(2-chlorophenyl)-6-methyl-1,4-dihydropyrimidine-5-carboxamide]
5.01 | 5.01 | 5.26 | 5.26 | 120.4 1 × 10^−6 cm/sec | <1 µg/mL | 22.3 m |  | CC1=C(C(=O)Nc2ccc(CN3CCOCC3)cc2)C(c2ccccc2Cl)N=C(Nc2nc3ccccc3o2)N1 (stereo not shown) [Compound 183, 2-(benzo[d]oxazol-2-ylamino)-4-(2-chlorophenyl)-6-methyl-N-(4-(morpholinomethyl)phenyl)-1,4-dihydropyrimidine-5-carboxamide]
4.91 | 4.91 | 5.21 | 5.21 | <11.8 1 × 10^−6 cm/sec | <1 µg/mL | 16.4271 m |  | CC1=C(C(=O)Nc2ccc(-n3cccn3)cc2)C(c2ccccc2Cl)N=C(Nc2nc3ccccc3o2)N1 (stereo not shown) [Compound 184, N-(4-(1H-pyrazol-1-yl)phenyl)-2-(benzo[d]oxazol-2-ylamino)-4-(2-chlorophenyl)-6-methyl-1,4-dihydropyrimidine-5-carboxamide]
4.96 | 4.96 | 5.36 | 5.36 |  | <1 µg/mL | 15.91 m | < 7.6 ×10⁻⁶ cm/s | COC(=O)c1cnc(NC(=O)C2=C(C)NC(Nc3nc4ccccc4o3)=NC2c2ccccc2Cl)s1 (stereo not shown) [Compound 185, methyl 2-(2-(benzo[d]oxazol-2-ylamino)-4-(2-chlorophenyl)-6-methyl-1,4-dihydropyrimidine-5-carboxamido)thiazole-5-carboxylate]
